Values after ≈ are worked out from the molar mass of the structure shown. Values belong to the molecule of their own block, whether it stands above or below them. Numbered stars: 1 amine (or outer) side, 2 acyl side, 3 side chain; on linkers, the order of the positions; unused ones are H or OH. Square brackets hold non-standard residues; d marks the D form. Peptide text beside a SMILES is read from it. * marks the point of attachment. X1 = COc1cccc2[nH]c(C)c(C[C@H](N[*:1])C(=O)[*:2])c12; dAla(ψthiazole) = C[C@@H](N[*:1])c1nc(C(=O)[*:2])cs1; Trp(4-OMe) = COc1cccc2[nH]cc(C[CH](N)C(=O)O)c12; X2 = O=C(c1csc([C@@H](CO)N[*:1])n1)[*:2]; GlyΨ(Thz) = O=C(c1csc(CN[*:1])n1)[*:2]; dAbu = CC[C@@H](N)C(=O)O; Cbz = O=C(OCc1ccccc1)*; Dha = C=C(N)C(=O)O; Sar = CNCC(=O)O
Columns and labels:
H15 (cervix carcinoma) = experiment: MIC (visual), serial dilution, H15; assay type: cell-based, human; details: minimal concentration of a serial dilution exhibiting a visual effect
From the text: (§1) The following table summarizes the effects of argyrin-derivatives A to H on two cancer cell lines, H15 (cervix carcinoma) and SW-480 (colon cancer). In order to test the efficacy, a p27-GFP-clone was used.

[1] = tested on: SW-480 (colon cancer cell line); experiment: MTT-test proliferation of SW-480; assay type: cell-based, human; details: for IC-50 SW-480: half-maximal inhibition of proliferation
Method: (§2) MTT assays were done as previously described (Sasse, F. et al. Argyrins, immunosuppressive cyclic peptides from myxobacteria. I. Production, isolation, physico-chemical and biological properties. J Antibiot (Tokyo) 55, 543-51 (2002)). TUNEL staining of tissue sections was performed on 10 micrometer sections which were deparafinised and treated as recommended by the manufacturer. (In Situ Cell Death Detection Kit, Fluorescein; ROCHE, Cat #11 684 795 910). Flow cytometric analysis of cultured cells was done using a Becton Dickinson fluorescence cytometer as previously described (Malek, N. P. et al. A mouse knock-in model exposes sequential proteolytic pathways that regulate p27^Kip1 in G1 and S phase. Nature 413, 323-7 (2001)). Analysis of the distribution of cells in the cell cycle and the sub-G1 fraction was done using Cell Quest software. A histone-associated-DNA-fragments ELISA was used to determine the number of apoptotic cells according to manufacturers instructions (Roche #11 774425001).

SW-480 (colon cancer) = experiment: MIC (visual), serial dilution, SW-480; assay type: cell-based, human; details: minimal concentration of a serial dilution exhibiting a visual effect
From the text: as §1

[2] = tested on: p27-GFP (clone H15GFP-p27, HeLa-cell line; cervix-carcinoma); experiment: GFP-fluorescence per FACS in clone H15GFP-p27; assay type: cell-based, human; details: GFP-fluorescence per FACS after 24 h incubation, 500 ng/ml
From the text: Human p27cDNA (in plasmid vector CS2+) was digested with EcoR1 and BamH1, and the resulting fragment was ligated after gel purification into the vector pEGFP-N1 (Clontech) that was cut with the same restriction enzymes. Thus, a […] fusion with the GFP as contained in the pEGFP-vector was generated. The plasmid was then transfected into Hela cells, and, following selection of the cells with kanamycin, cellular clones were isolated which had the plasmid integrated stably into their chromosome. The expression of the p27EGFP proteins was confirmed using Western blots and immune precipitations for both p27 and GFP.
as §1

[3] = tested on: mouse embryonic fibroblasts from p27^kip1 knockout mice; experiment: Apoptosis (sub-G1 fraction) by flow cytometry in p27 knockout MEF; assay type: cell-based; details: sub G1 fraction
From the text: (§3) Next the inventors tested whether the stabilization of p27 was indeed required for the apoptosis inducing function of Argyrin A or was merely a consequence of proteasome inhibition. For this the inventors treated immortalized mouse embryonic fibroblasts from p27^kip1 wildtype or knockout mice with Argyrin A or the proteasome inhibitor bortezomib and assayed cell cycle distribution and apoptosis by flow cytometry. […] These differences in sensitivity in response to Argyrin A treatment were not due to differences in the accumulation of other proteasomal substrates in p27 wildtype and knockout cells as p53 and p21 levels increased in both cell lines in response to Argyrin A (FIG. 6B). To extend this observation to human cancer cells the inventors reduced the levels of p27^kip1 in HeLa cells using p27^kip1 specific siRNA.
(§4) The results shown are the average numbers for six independent experiments. b+d) Wildtype (b) and p27 knockout (d) MEF were treated with Argyrin A or transfected with siRNAs specific for the β1, β2 or β5 subunit of the proteasome for 24 hours. The graphs show the remaining catalytic activity of the different proteasome subunits after Argyrin A or siRNA treatment compared to an untreated control (n=3). The western blots show the expression of the β1, β2 or β5 subunit of the proteasome in proliferating cells and after treatment with siRNAs for a representative experiment. c+e) Flow cytometric measurements of the number of apoptotic cells (sub-G1 fraction) after Argyrin A or siRNA treatment in wildtype (c) or p27 knockout (E) MEF. f) HeLa cells were treated with Argyrin A or siRNA against p27 or Argyrin A and siRNA against p27 for either 24 or 48 hours.
as §2

[4] = tested on: mouse embryonic fibroblasts from p27^kip1 wildtype mice; experiment: Apoptosis (sub-G1 fraction) by flow cytometry in p27 wildtype MEF; assay type: cell-based; details: sub G1 fraction
From the text: as §3, §4, §2

Compound: C=C1NC(=O)[C@@H](CC)NC(=O)CNC(=O)[C@H](Cc2c(C)[nH]c3cccc(OC)c23)NC(=O)[C@H](Cc2c[nH]c3ccccc23)NC(=O)c2csc(n2)[C@@H](C)NC(=O)CN(C)C1=O [Argyrin D] (cyclo(W[X1]G[dAbu][Dha][Sar][dAla(ψthiazole)]))
- MIC (visual) H15 (H15 (cervix carcinoma)): 12 µg/mL (≈ 14.1 µM)
- IC-50 SW-480 [1]: Ca. 0.05 μg/ml
- MIC (visual) SW-480 (SW-480 (colon cancer)): 37 µg/mL (≈ 43.4 µM)
- Mean of FSC-H (Log) H15 p27-GFP-clone [2]: 7.69

Compound: CC(C)C[C@@H](C=O)NC(=O)[C@H](CC(C)C)NC(=O)[C@H](CC(C)C)NC(=O)OCc1ccccc1 [MG132] (Cbz-Leu-Leu-Leu-aldehyde)
- apoptosis in p27 knockout MEF [3]: same response
- apoptosis in p27 wildtype MEF [4]: same response

- MIC (visual) H15 (H15 (cervix carcinoma)): 12 µg/mL (≈ 14.3 µM)
- IC50 ([1]; Homo sapiens, SW480, half-maximal inhibition of proliferation, read-out: IC-50 SW-480): ~0.05 µg/mL (≈ 0.0596 µM)
- MIC (visual) SW-480 (SW-480 (colon cancer)): 12 µg/mL (≈ 14.3 µM)
Compound: C=C1NC(=O)[C@@H](CC)NC(=O)CNC(=O)[C@H](Cc2c[nH]c3cccc(OC)c23)NC(=O)[C@H](Cc2c[nH]c3ccccc23)NC(=O)c2csc(n2)[C@@H](C)NC(=O)CN(C)C1=O [Argyrin B, argyrin B] (cyclo([Dha][Sar][dAla(ψthiazole)]W[Trp(4-OMe)]G[dAbu]))
- Mean of FSC-H (Log) H15 p27-GFP-clone [2]: 7.60

Compound: C=C1NC(=O)[C@@H](C)NC(=O)CNC(=O)[C@H](Cc2c[nH]c3cccc(OC)c23)NC(=O)[C@H](Cc2c[nH]c3ccccc23)NC(=O)c2csc(n2)[C@@H](CO)NC(=O)CN(C)C1=O [Argyrin F, argyrin F] (cyclo([Dha][Sar][X2]W[Trp(4-OMe)]G[dA]))
- MIC (visual) H15 (H15 (cervix carcinoma)): 0.5 µg/mL (≈ 0.595 µM)
- IC-50 SW-480 [1]: 0.05 µg/mL
- MIC (visual) SW-480 (SW-480 (colon cancer)): 0.2 µg/mL (≈ 0.238 µM)
- Mean of FSC-H (Log) H15 p27-GFP-clone [2]: 11.24

Compound: C=C1NC(=O)[C@@H](C)NC(=O)CNC(=O)[C@H](Cc2c(C)[nH]c3cccc(OC)c23)NC(=O)[C@H](Cc2c[nH]c3ccccc23)NC(=O)c2csc(n2)[C@@H](C)NC(=O)CN(C)C1=O [Argyrin C] (cyclo(W[X1]G[dA][Dha][Sar][dAla(ψthiazole)]))
- MIC (visual) H15 (H15 (cervix carcinoma)): 37 µg/mL (≈ 44.1 µM)
- IC-50 SW-480 [1]: Ca. 0.05 μg/ml
- MIC (visual) SW-480 (SW-480 (colon cancer)): 37 µg/mL (≈ 44.1 µM)
- Mean of FSC-H (Log) H15 p27-GFP-clone [2]: 7.36

Compound: C=C1NC(=O)C(C)NC(=O)CNC(=O)C(Cc2c[nH]c3cccc(OC)c23)NC(=O)C(Cc2c[nH]c3ccccc23)NC(=O)c2csc(n2)CNC(=O)CN(C)C1=O (stereo not drawn) [Argyrin H] (cyclo([Dha][Sar][GlyΨ(Thz)]W[Trp(4-OMe)]GA); configuration not given here)
- MIC (visual) H15 (H15 (cervix carcinoma)): 37 µg/mL (≈ 45.6 µM)
- IC-50 SW-480 [1]: Ca. 0.5 μg/ml
- MIC (visual) SW-480 (SW-480 (colon cancer)): 37 µg/mL (≈ 45.6 µM)

From US8217071B2, “Use of inhibitors of the degradation of p27, in particular Argyrin and derivatives thereof, for the treatment of proliferative diseases” (Helmholtz Zentrum für Infektionsforschung GmbH, priority 2007, dated 2012)
